Test results from ChEMBL document CHEMBL5614465, “Discovery of the First Clinical Protein Degrader for the Treatment of Autoimmune Indications: Orally Bioavailable and Selective IRAK4 Degrader KT-474” (J Med Chem, 2024).

Target: Protein cereblon/Interleukin-1 receptor-associated kinase 4 (Homo sapiens, UniProt Q9NWZ3+Q96SW2)
Test: PROTAC activity at CRBN/IRAK4 in human HEK293T cells assessed as induction of IRAK4 degradation measured after 24 hrs by immunoblotting analysis
Type: cell-based

Chain of Protein cereblon/Interleukin-1 receptor-associated kinase 4 (Q9NWZ3 whole entry): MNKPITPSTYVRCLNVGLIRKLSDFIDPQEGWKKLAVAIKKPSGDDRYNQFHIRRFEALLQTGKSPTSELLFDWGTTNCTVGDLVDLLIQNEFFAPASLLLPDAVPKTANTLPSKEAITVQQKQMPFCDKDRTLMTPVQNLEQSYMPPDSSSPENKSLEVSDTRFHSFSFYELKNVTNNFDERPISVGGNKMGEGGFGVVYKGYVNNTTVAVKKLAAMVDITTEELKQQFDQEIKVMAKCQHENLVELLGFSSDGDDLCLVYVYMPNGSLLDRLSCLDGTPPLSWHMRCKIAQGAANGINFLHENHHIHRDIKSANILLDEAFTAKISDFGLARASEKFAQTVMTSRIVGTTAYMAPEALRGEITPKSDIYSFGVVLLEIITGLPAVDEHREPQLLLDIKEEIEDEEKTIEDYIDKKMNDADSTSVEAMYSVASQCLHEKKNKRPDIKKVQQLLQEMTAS
Chain of Protein cereblon/Interleukin-1 receptor-associated kinase 4 (Q96SW2 whole entry): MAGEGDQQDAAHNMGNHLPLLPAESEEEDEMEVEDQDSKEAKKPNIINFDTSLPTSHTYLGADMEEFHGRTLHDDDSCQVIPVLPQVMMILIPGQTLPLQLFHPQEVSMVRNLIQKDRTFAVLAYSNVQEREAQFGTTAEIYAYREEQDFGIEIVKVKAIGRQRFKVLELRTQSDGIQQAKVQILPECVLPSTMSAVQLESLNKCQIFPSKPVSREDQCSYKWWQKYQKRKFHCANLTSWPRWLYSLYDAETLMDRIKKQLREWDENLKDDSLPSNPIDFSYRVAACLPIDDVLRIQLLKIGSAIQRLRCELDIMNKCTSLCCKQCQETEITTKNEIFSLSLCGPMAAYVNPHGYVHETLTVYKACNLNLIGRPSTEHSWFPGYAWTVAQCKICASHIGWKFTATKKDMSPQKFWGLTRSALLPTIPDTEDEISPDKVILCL

DC50: 405 nM
SMILES: CC(C)Nc1cc(-n2ccc3cc(C#N)cnc32)ncc1C(=O)N[C@H]1CC[C@H](C(=O)NCCOCCNC(=O)COc2cccc3c2C(=O)N(C2CCC(=O)NC2=O)C3=O)CC1 (stereo partly specified)
